Test results reported in patent publication US12605451B2, “Targeted plasma protein degradation” (Novartis AG, priority 2020, dated 2026).
Where two headings read alike, the source gives them in different places. Blank lines part the entries; values can stand above or below the molecule they belong to. Positions of bridges follow the written chain, without caps; N, C: chain ends. Non-standard residues stand in square brackets, D forms with d. Residues, ends and D or L forms follow the SMILES beside them. *: point of attachment. X2 = CC(=O)N[C@H]1[C@H]2OC[C@](COCCOCCOCCOCCn3cc(COCC(COCc4cn(CCOCCOCCOCCOC[C@@]56CO[C@@H](O5)[C@H](NC(C)=O)[C@@H](O)[C@H]6O)nn4)NC(=O)CCOCCOCCOCCOCCC(=O)*)nn3)(O2)[C@H](O)[C@@H]1O; X1 = CC(=O)N[C@H]1[C@H]2OC[C@](COCCOCCOCCOCCn3cc(COCCNC(=O)CCOCCOCCOCCOCCC(=O)*)nn3)(O2)[C@H](O)[C@@H]1O; Bip = N[C@@H](Cc1ccc(-c2ccccc2)cc1)C(=O)O; Levulinoyl = CC(=O)CCC(=O)*; NMeA = CN[C@@H](C)C(=O)O

Key:
human ASGPR1 = biological target: T1, human ASGPR1 (Homo sapiens, UniProt P07306); test: ASGPR1 SPR direct binding (Biacore, SA chip)
T1 construct: Recombinant extracellular domain of human ASGPR1 with N-terminal biotinylated Avitag
T1 sequence (P07306 62-291 limits assumed): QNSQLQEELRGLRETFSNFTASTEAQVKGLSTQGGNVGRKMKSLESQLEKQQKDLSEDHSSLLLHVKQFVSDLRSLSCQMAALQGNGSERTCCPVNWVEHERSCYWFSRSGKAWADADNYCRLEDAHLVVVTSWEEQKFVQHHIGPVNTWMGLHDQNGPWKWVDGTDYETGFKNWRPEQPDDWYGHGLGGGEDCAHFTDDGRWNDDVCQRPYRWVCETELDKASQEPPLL
Procedure: SPR was used to obtain the binding data for ASGP receptor ligand compound (int-CC2), either alone or as part of the bifunctional compounds (BFC-13), (BFC-15) and (BFC16).
(§1) ASGPR1 SPR experiments were performed on either Biacore T200 or Biacore 8K. The assay was optimized for Biacore (Streptavidin) SA chip in running buffer consisting of 20 mM HEPES, 300 mM NaCl, 2 mM CaCl2, 0.01% tween-20, 2% DMSO, pH 7.4. Recombinant extracellular domain of human ASGPR1 with N-terminal biotinylated Avitag was diluted to 20 μg/mL in running buffer, and immobilized onto SA chip after it was preconditioned with at least four 60-second injections at 30 uL/min of 1 M NaCl/40 mM NaOH solution. Protein immobilization level varied from 500 RU to 3500 RU dependent on analytes' molecular weight, for targeted Rmax of 30 RUs. Direct binding of analytes to ASGPR1 was observed when a dose response titration of analytes in 2% DMSO was flown over the immobilized protein. Data analysis was done on either Biacore T200 Evaluation Software or Biacore Insight Evaluation Software.
SPR was used to obtain the binding data for ASGP receptor ligand compounds (int-CC2), either alone or as part of the bifunctional compounds (BFC1).
as §1, with “Biacore” for “Biacore (Streptavidin)”

human PCSK9 = biological target: T2, human PCSK9 (Homo sapiens, UniProt Q8NBP7); test: SPR binding to biotinylated human PCSK9 (Proteon XPR36)
T2 construct: Purified recombinant full length human PCSK9 with C-terminal biotinylated Avitag
T2 sequence (Q8NBP7 153-692): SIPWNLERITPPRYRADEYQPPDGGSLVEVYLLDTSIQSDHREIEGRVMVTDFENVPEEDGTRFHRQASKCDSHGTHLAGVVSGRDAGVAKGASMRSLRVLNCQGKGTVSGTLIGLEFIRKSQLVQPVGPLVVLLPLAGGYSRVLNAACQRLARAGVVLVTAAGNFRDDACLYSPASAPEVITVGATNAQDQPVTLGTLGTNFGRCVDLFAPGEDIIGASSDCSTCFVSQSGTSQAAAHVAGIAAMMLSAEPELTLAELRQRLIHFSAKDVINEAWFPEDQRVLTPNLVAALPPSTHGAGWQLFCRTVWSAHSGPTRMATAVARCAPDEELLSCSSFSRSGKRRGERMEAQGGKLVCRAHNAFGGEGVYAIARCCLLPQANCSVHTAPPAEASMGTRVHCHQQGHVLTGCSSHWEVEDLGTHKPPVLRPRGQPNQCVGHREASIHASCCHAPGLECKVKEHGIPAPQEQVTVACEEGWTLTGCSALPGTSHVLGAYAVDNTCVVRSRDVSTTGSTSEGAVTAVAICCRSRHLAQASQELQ
Procedure: SPR was used to obtain the binding data for PCSK9 receptor ligand compound (C5), either alone or as part of the bifunctional compounds (BFC1), respectively.
SPR Binding experiments were performed on a Proteon XPR36 instrument (Bio-Rad Laboratories). Purified recombinant full length human PCSK9 with C-terminal biotinylated Avitag was used for the assay. Biotinylated human PCSK9 was incubated with fivefold molar excess of bifunctional compound (BFC1) or compound (C5), and immobilized onto a Neutravidin coated sensor chip. (NLC chip, Bio-Rad Laboratories, Inc). After conditioning the chip by injecting running buffer (20 mM Tris pH7.5, 300 mM NaCl, 25 mM CaCl2, 2 mM betamercaptoethanol, 2% DMSO and 0.05% Tween-20) at a flow rate of 0.1 mL/min for 240 s, PCSK9 protein was injected at a protein concentration of 0.02 mg/ml in running buffer with fivefold molar excess of bifunctional compound and a flow rate of 0.03 mL/min followed by 4 washes with running buffer with 1 μM of bifunctional compound (0.1 mL/min for 60 seconds each).
To perform sandwich SPR binding assays, His-ASGPR1 (62-291) protein stocks were diluted with running buffer to a desired concentration. ASGPR was injected at a flow rate of 0.1 mL/min for 240 s and allowed to dissociate for 1200 s. Sensorgrams were recorded for association and dissociation phases. All sensorgrams were processed by subtracting the binding response recorded from a blank control surfaces (or interspot surfaces), followed by subtracting buffer blank injections from the reaction surface. Data were processed with the ProteOn Manager software (version 3.1.0.6, Bio-Rad, Inc.).

[1] = Bifunctional Compound (PCSK9 series), Table 9, read-out: ASGPR binding KD
[2] = Free Ligand, SPR, read-out: PCSK9 KD
[3] = Bifunctional Compound, SPR, read-out: PCSK9 KD

Compound: CC(=O)CCC(=O)NCCCC[C@H](NC(=O)CNC(=O)[C@@H]1CSCC(=O)N[C@@H](Cc2ccccc2)C(=O)N[C@@H](C(C)C)C(=O)N2CCC[C@H]2C(=O)N[C@@H]([C@@H](C)O)C(=O)N[C@@H]([C@@H](C)O)C(=O)N[C@@H](Cc2ccc(-c3ccccc3)cc2)C(=O)N(C)[C@@H](C)C(=O)N[C@@H](Cc2ccc(-c3ccccc3)cc2)C(=O)N(C)[C@@H](C)C(=O)N[C@@H](CCC(=O)O)C(=O)N[C@@H](C)C(=O)N2CCC[C@H]2C(=O)N1)C(N)=O [C5] ({CH2CO}-FVPTT[Bip][NMeA][Bip][NMeA]EAPCGK(Levulinoyl)-NH2; thioether N-13)
Kd (human PCSK9; [2]): 1.2 nM

Compound: CC(C)[C@@H]1NC(=O)[C@H](Cc2ccccc2)NC(=O)CSC[C@@H](C(=O)NCC(=O)N[C@@H](CCCCNC(=O)OC[C@@H]2[C@@H]3CCc4c(nnn4CCCCCCO[C@H](O[C@@H](/C=N/OCC(=O)NNC(=O)CCCO[C@@H]4O[C@H](CO[C@H]5O[C@H](CO[C@H]6O[C@H](CO)[C@@H](O)[C@H](O)[C@@H]6O[C@H]6O[C@H](COP(=O)(O)O)[C@@H](O)[C@H](O)[C@@H]6O)[C@@H](O)[C@H](O)[C@@H]5O)[C@@H](O)[C@H](O[C@H]5O[C@H](CO)[C@@H](O)[C@H](O)[C@@H]5O[C@H]5O[C@H](COP(=O)(O)O)[C@@H](O)[C@H](O)[C@@H]5O)[C@@H]4O)CO)[C@H](O)/C=N\OCC(=O)NNC(=O)CCCO[C@@H]4O[C@H](CO[C@H]5O[C@H](CO[C@H]6O[C@H](CO)[C@@H](O)[C@H](O)[C@@H]6O[C@H]6O[C@H](COP(=O)(O)O)[C@@H](O)[C@H](O)[C@@H]6O)[C@@H](O)[C@H](O)[C@@H]5O)[C@@H](O)[C@H](O[C@H]5O[C@H](CO)[C@@H](O)[C@H](O)[C@@H]5O[C@H]5O[C@H](COP(=O)(O)O)[C@@H](O)[C@H](O)[C@@H]5O)[C@@H]4O)CC[C@@H]32)C(N)=O)NC(=O)[C@@H]2CCCN2C(=O)[C@H](C)NC(=O)[C@H](CCC(=O)O)NC(=O)[C@H](C)N(C)C(=O)[C@H](Cc2ccc(-c3ccccc3)cc2)NC(=O)[C@H](C)N(C)C(=O)[C@H](Cc2ccc(-c3ccccc3)cc2)NC(=O)[C@H]([C@@H](C)O)NC(=O)[C@H]([C@@H](C)O)NC(=O)[C@@H]2CCCN2C1=O [BFC-3]
Kd (human PCSK9): 7.7 nM

Compound: CC(=O)N[C@H]1[C@H](OCCCCC(=O)NCCCNC(=O)CCOCC(N)(COCCC(=O)NCCCNC(=O)CCCCOC2O[C@H](CO)[C@H](O)[C@H](O)[C@H]2NC(C)=O)COCCC(=O)NCCCNC(=O)CCCCO[C@@H]2O[C@H](CO)[C@H](O)[C@H](O)[C@H]2NC(C)=O)O[C@H](CO)[C@H](O)[C@@H]1O (stereo partly drawn) [int-CC2, N,N′-(10-((3-((3-(5-(((3R,4R,5R,6R)-3-acetamido-4,5-dihydroxy-6-(hydroxymethyl)tetrahydro-2H-pyran-2-yl)oxy)pentanamido)propyl)amino)-3-oxopropoxy)methyl)-10-amino-5,15-dioxo-8,12-dioxa-4,16-diazanonadecane-1,19-diyl)bis(5-(((2R,3R,4R,5R,6R)-3-acetamido-4,5-dihydroxy-6-(hydroxymethyl)tetrahydro-2H-pyran-2-yl)oxy)pentanamide)]
Kd (human ASGPR1; Free Ligand, Table 7, read-out: ASGPR KD): 0.9 nM

Compound: COC[C@@H]1NC(=O)[C@H](CCCN)N(Cc2ccc(Cl)cc2Oc2ccc(-c3cnc(CN(C)C)n3C)cc2)C(=O)C[C@@H](Cc2ccccc2)C(=O)N(C)[C@H]2CCCC[C@@H]2NC(=O)C[C@H](Cc2ccc(Cl)cc2)N(C)C1=O [C9, (4S,7S,10S,14R,16aS,20aS)-10-(3-aminopropyl)-14-benzyl-11-(4-chloro-2-(4-(2-((dimethylamino)methyl)-1-methyl-1H-imidazol-5-yl)phenoxy)benzyl)-4-(4-chlorobenzyl)-7-(methoxymethyl)-5,16-dimethylhexadecahydrobenzo[1][1,4,7,11,14]pentaazacyclooctadecine-2,6,9,12,15 (3H)-pentaone]
Kd (human PCSK9; [2]): < 1 nM

More lines, now with the values ahead:

Kd (human ASGPR1; [1]): 22 nM
Compound: COC[C@@H]1NC(=O)[C@H](CCCNC(=O)CCOCCOCCOCCOCCC(=O)NCCOCc2cn(CCOCCOCCOCCOC[C@@]34CO[C@@H](O3)[C@H](NC(C)=O)[C@@H](O)[C@H]4O)nn2)N(Cc2ccc(Cl)cc2Oc2ccc(-c3cnc(CN(C)C)n3C)cc2)C(=O)C[C@@H](Cc2ccccc2)C(=O)N(C)[C@H]2CCCC[C@@H]2NC(=O)C[C@H](Cc2ccc(Cl)cc2)N(C)C1=O [BFC-12]

Kd (human ASGPR1; [1]): 90 nM | Kd (human PCSK9; [3]): 4.6 nM
Compound: CC(=O)N[C@H]1[C@H]2OC[C@](COCCOCCOCCOCCn3cc(COCCNC(=O)CCOCCOCCOCCOCCC(=O)NCCCC[C@H](NC(=O)CNC(=O)[C@@H]4CSCC(=O)N[C@@H](Cc5ccccc5)C(=O)N[C@@H](C(C)C)C(=O)N5CCC[C@H]5C(=O)N[C@@H]([C@@H](C)O)C(=O)N[C@@H]([C@@H](C)O)C(=O)N[C@@H](Cc5ccc(-c6ccccc6)cc5)C(=O)N(C)[C@@H](C)C(=O)N[C@@H](Cc5ccc(-c6ccccc6)cc5)C(=O)N(C)[C@@H](C)C(=O)N[C@@H](CCC(=O)O)C(=O)N[C@@H](C)C(=O)N5CCC[C@H]5C(=O)N4)C(N)=O)nn3)(O2)[C@H](O)[C@@H]1O [BFC-5] ({CH2CO}-FVPTT[Bip][NMeA][Bip][NMeA]EAPCGK(X1)-NH2; thioether N-13)

Kd (human ASGPR1; [1]): 7 nM | Kd (human PCSK9; [3]): 3.5 nM
Compound: CC(=O)N[C@H]1[C@H]2OC[C@](COCCOCCOCCOCCn3cc(COCC(COCc4cn(CCOCCOCCOCCOC[C@@]56CO[C@@H](O5)[C@H](NC(C)=O)[C@@H](O)[C@H]6O)nn4)NC(=O)CCOCCOCCOCCOCCC(=O)NCCCC[C@H](NC(=O)CNC(=O)[C@@H]4CSCC(=O)N[C@@H](Cc5ccccc5)C(=O)N[C@@H](C(C)C)C(=O)N5CCC[C@H]5C(=O)N[C@@H]([C@@H](C)O)C(=O)N[C@@H]([C@@H](C)O)C(=O)N[C@@H](Cc5ccc(-c6ccccc6)cc5)C(=O)N(C)[C@@H](C)C(=O)N[C@@H](Cc5ccc(-c6ccccc6)cc5)C(=O)N(C)[C@@H](C)C(=O)N[C@@H](CCC(=O)O)C(=O)N[C@@H](C)C(=O)N5CCC[C@H]5C(=O)N4)C(N)=O)nn3)(O2)[C@H](O)[C@@H]1O (some centres unmarked) [BFC-7] ({CH2CO}-FVPTT[Bip][NMeA][Bip][NMeA]EAPCGK(X2)-NH2; thioether N-13)

Kd (human ASGPR1; [1]): < 1 nM | Kd (human PCSK9; [3]): 5.8 nM
Compound: CC(=O)N[C@H]1[C@H]2OC[C@](COCCOCCOCCOCCn3cc(COCC(COCc4cn(CCOCCOCCOCCOC[C@@]56CO[C@@H](O5)[C@H](NC(C)=O)[C@@H](O)[C@H]6O)nn4)(COCc4cn(CCOCCOCCOCCOC[C@@]56CO[C@@H](O5)[C@H](NC(C)=O)[C@@H](O)[C@H]6O)nn4)NC(=O)CCOCCOCCOCCOCCC(=O)NCCCC[C@H](NC(=O)CNC(=O)[C@@H]4CSCC(=O)N[C@@H](Cc5ccccc5)C(=O)N[C@@H](C(C)C)C(=O)N5CCC[C@H]5C(=O)N[C@@H]([C@@H](C)O)C(=O)N[C@@H]([C@@H](C)O)C(=O)N[C@@H](Cc5ccc(-c6ccccc6)cc5)C(=O)N(C)[C@@H](C)C(=O)N[C@@H](Cc5ccc(-c6ccccc6)cc5)C(=O)N(C)[C@@H](C)C(=O)N[C@@H](CCC(=O)O)C(=O)N[C@@H](C)C(=O)N5CCC[C@H]5C(=O)N4)C(N)=O)nn3)(O2)[C@H](O)[C@@H]1O [BFC-6]
